Patent publication US9809623B2, “α4β7 peptide monomer and dimer antagonists” (Protagonist Therapeutics, Inc., priority 2014, dated 2017)
pIC50: −log10 of the molar value. Like-named read-outs stand apart in the source and are kept apart here. Numbered stars: 1 amine (or outer) side, 2 acyl side, 3 side chain; on linkers, the order of the positions; unused ones are H or OH. Bridge positions count the residues as written; N and C are the ends. Square brackets hold non-standard residues; d marks the D form. Peptide text beside a SMILES is read from it. I, II: the chains in the order shown. ξ: configuration not given here. X2 = O=C(CCOCCOCCOCCOCCOCCOCCOCCOCCOCCOCCOCCOCCOCCOCCOCCOCCOCCOCCOCCOCCOCCOCCOCCOCCOCCC(=O)[*:2])[*:1]; Phe(4-COOH) = N[C@@H](Cc1ccc(C(=O)O)cc1)C(=O)O; Phe(4-tBu) = CC(C)(C)c1ccc(C[C@H](N)C(=O)O)cc1; 1Nal = N[C@@H](Cc1cccc2ccccc12)C(=O)O; Diglycolyl = O=C(COCC(=O)[*:2])[*:1]; NMeR = CN[C@@H](CCCNC(=N)N)C(=O)O; β3hE = N[C@@H](CCC(=O)O)CC(=O)O; Thr(3ξ) = CC(O)[C@H](N)C(=O)O; NMeK = CN[C@@H](CCCCN)C(=O)O; Pen = CC(C)(S)[C@H](N)C(=O)O

Tests used:
[1] = biological target: α4β7 (Homo sapiens, UniProt P13612+P26010); assay: α4β7-MAdCAM Cell Adhesion Assay (RPMI 8866 human cells); format: cell-based; design: host or cells: RPMI 8866 human B lymphoblastoid cells
Chain of α4β7 (P13612 34-1032): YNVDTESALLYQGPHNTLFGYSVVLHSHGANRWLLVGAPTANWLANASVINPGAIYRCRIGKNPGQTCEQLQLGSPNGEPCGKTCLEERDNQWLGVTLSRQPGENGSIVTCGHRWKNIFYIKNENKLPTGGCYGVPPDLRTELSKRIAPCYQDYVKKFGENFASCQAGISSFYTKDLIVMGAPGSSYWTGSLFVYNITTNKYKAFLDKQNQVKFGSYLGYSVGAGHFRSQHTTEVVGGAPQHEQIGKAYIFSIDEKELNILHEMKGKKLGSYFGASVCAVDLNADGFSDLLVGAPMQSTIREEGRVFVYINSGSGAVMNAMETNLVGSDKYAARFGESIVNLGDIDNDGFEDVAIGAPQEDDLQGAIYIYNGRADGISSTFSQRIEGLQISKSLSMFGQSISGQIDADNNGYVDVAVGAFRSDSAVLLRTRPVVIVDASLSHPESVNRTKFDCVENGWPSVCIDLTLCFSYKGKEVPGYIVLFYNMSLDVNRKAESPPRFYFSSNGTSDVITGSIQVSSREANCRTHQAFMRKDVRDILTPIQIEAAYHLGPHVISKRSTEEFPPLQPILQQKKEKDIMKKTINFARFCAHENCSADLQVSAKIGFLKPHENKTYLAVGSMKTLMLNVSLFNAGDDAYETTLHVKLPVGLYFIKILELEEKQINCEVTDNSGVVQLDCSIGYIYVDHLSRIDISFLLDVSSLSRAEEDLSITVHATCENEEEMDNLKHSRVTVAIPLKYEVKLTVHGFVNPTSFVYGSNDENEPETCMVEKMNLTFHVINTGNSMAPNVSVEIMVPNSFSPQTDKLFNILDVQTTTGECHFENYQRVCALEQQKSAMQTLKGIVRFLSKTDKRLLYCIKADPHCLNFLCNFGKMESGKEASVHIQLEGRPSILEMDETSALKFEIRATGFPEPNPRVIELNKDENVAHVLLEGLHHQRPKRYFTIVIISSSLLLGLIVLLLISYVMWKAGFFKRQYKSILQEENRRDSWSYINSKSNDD
Chain of α4β7 (P26010 20-798): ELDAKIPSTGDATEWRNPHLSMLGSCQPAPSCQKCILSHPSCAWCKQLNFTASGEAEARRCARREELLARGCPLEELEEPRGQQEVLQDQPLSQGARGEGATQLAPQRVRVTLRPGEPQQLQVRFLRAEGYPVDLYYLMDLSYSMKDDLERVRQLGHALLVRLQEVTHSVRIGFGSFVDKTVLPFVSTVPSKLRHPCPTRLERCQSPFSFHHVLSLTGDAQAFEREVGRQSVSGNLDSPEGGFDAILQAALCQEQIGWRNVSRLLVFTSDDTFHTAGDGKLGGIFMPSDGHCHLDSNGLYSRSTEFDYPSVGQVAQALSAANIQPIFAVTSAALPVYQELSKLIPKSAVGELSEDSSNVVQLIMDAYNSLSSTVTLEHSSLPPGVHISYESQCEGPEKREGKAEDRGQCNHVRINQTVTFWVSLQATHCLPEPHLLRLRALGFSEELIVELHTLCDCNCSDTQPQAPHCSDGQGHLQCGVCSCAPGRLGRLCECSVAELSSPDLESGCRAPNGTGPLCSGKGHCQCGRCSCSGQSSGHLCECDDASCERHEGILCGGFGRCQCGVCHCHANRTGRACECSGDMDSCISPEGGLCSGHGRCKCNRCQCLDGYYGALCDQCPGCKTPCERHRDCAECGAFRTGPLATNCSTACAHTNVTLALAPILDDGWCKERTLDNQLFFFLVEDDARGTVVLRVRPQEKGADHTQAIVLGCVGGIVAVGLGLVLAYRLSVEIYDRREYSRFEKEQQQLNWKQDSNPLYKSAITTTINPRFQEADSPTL
Summary of the method: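 Washed RPMI 8866 cells (200,000/well) in DMEM with 0.1% BSA, 10 mM HEPES pH 7, 1 mM MnCl2 adhered to rh MAdCAM-1/Fc-coated wells with serially diluted peptides, 30-45 min at 37 °C. After three washes, bound cells quantified by MTT, A570, cell-free background subtracted for dose response.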

[2] = biological target: T1, α4β1 (Homo sapiens, UniProt P05556+P13612, DEL729-798); assay: α4β1-VCAM Competition ELISA; format: binding
T1 construct: purchased R&D Systems 5668-A4
T1 sequence (P13612 34-977 limits assumed, stated change not applied): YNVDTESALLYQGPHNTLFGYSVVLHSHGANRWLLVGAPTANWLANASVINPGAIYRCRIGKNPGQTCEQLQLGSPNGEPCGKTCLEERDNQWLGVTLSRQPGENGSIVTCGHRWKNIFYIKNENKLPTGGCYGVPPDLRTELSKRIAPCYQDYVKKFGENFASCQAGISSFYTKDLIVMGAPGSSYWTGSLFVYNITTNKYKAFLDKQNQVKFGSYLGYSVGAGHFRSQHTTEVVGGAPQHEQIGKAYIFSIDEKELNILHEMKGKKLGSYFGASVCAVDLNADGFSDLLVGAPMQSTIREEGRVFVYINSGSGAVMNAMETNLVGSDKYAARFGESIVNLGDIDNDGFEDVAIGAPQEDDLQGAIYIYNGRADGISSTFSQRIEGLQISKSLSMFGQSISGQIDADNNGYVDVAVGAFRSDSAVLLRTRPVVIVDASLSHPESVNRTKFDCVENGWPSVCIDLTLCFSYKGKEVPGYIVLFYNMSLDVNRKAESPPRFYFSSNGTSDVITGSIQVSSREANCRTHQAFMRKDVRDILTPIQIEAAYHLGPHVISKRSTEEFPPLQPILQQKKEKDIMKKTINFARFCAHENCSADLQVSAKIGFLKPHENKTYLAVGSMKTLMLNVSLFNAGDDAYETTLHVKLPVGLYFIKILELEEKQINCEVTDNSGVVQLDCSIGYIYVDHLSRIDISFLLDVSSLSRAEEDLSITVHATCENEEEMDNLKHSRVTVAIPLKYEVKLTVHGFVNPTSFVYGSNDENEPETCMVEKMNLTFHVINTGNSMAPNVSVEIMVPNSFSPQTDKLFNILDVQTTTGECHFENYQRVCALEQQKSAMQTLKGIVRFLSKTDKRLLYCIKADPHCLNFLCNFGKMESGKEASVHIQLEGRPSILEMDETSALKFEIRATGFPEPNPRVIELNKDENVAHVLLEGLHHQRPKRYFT
T1 sequence (P05556 21-728 limits assumed, stated change not applied): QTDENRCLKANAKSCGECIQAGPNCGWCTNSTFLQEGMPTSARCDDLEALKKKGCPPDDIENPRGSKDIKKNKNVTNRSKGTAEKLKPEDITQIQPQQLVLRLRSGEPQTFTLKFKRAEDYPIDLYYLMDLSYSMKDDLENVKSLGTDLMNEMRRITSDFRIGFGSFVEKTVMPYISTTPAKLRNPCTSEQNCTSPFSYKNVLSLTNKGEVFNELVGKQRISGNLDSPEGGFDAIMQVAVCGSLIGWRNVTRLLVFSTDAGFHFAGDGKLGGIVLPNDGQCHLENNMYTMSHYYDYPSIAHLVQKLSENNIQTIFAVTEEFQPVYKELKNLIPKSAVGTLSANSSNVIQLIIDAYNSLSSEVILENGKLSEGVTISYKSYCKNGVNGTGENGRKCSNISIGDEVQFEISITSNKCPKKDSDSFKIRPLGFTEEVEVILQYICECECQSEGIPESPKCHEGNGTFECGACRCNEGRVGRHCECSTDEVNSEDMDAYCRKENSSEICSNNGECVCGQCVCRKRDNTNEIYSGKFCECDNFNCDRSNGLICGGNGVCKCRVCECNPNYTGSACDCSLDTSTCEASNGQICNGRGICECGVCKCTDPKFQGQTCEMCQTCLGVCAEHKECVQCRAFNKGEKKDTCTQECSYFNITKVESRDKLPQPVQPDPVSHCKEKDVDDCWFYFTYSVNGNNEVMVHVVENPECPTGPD
Summary of the method: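 Recombinant α4β1 (60 nM final) competed with serially diluted peptides (top final 100 μM) for VCAM-1 Fc coated at 400 ng/well, in Tris pH 7.6 with 1 mM MnCl2 or MgCl2, for 2 h at 37 °C. Bound integrin was detected with anti-CD49d 9F10 plus HRP anti-mouse IgG, using TMB read at 450 nm.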

[3] = biological target: T2, rh integrin α4β7 (Homo sapiens, UniProt P13612+P26010); assay: α4β7-MAdCAM Competition ELISA; format: binding
T2 construct: purchased R&D Systems 5397-A30
T2 sequence (P13612 34-977 limits assumed): as the sequence (P13612 34-977 limits assumed, stated change not applied) above
T2 sequence (P26010 20-723 limits assumed): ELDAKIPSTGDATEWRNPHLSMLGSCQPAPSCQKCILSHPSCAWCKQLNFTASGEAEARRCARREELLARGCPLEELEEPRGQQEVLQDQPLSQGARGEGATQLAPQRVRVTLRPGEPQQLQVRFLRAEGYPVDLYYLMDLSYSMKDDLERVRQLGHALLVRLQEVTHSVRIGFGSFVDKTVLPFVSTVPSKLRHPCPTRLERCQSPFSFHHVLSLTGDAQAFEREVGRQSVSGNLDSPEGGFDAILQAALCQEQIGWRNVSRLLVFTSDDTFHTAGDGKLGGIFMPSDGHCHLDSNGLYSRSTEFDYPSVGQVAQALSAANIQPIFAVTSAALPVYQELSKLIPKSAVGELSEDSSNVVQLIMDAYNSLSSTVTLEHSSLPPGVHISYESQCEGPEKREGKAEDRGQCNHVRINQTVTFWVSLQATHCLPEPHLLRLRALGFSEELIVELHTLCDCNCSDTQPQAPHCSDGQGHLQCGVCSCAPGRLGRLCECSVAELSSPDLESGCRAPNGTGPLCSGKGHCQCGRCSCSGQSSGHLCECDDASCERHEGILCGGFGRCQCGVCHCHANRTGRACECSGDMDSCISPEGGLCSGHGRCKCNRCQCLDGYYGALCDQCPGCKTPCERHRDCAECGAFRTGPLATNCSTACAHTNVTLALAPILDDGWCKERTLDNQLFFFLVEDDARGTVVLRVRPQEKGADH
Summary of the method: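 Recombinant human α4β7 was captured on nickel plates at 800 ng/well. Peptide in 3-fold serial dilution (final top 10 μM) competed with MAdCAM-1 (final 10 nM) for 1 h at room temperature in 50 mM Tris pH 7.6, 150 mM NaCl, 1 mM MnCl2 or MgCl2. Bound MAdCAM-1 was detected with anti-human IgG1-HRP/TMB at A450.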

[4] = Table 3-B, Potency (α4β7), range classes, read-out: α4β7 cell (Hu) IC50
[5] = Table 3-B, Selectivity (α4β1), range classes, read-out: α4β1 ELISA IC50
[6] = Table 3-B, Potency (α4β7), range classes, read-out: α4β7 ELISA IC50
[7] = Table 4-B, read-out: Cell Adhesion α4β7 IC50
[8] = Table 4-B, read-out: ELISA_α4β1 IC50
[9] = Table 4-B, read-out: ELISA α4β7 IC50

For `CC(=O)N[C@@H]1C(=O)N(C)[C@@H](CCCNC(=N)N)C(=O)N[C@@H](CO)C(=O)N[C@@H](CC(=O)O)C(=O)N[C@@H]([C@@H](C)O)C(=O)N[C@@H](CC(C)C)C(=O)N[C@H](C(=O)N[C@@H](Cc2ccc(C(=O)O)cc2)C(=O)N[C@@H](CCC(=O)O)C(=O)N[C@H](CCCCNC(=O)COCC(=O)NCCCC[C@@H](NC(=O)[C@H](CCC(=O)O)NC(=O)[C@H](Cc2ccc(C(=O)O)cc2)NC(=O)[C@H]2NC(=O)[C@H](CC(C)C)NC(=O)[C@H]([C@@H](C)O)NC(=O)[C@H](CC(=O)O)NC(=O)[C@H](CO)NC(=O)[C@H](CCCNC(=N)N)N(C)C(=O)[C@@H](NC(C)=O)C(C)(C)SSC2(C)C)C(N)=O)C(N)=O)C(C)(C)SSC1(C)C` [compound 129] (I: Ac-[Pen][NMeR]SDTL[Pen][Phe(4-COOH)]E[dK]-NH2 / II: Ac-[Pen][NMeR]SDTL[Pen][Phe(4-COOH)]E[dK]-NH2; disulfide I:1-I:7, II:1-II:7; linker I:10-II:10 via Diglycolyl), the pIC50 [1, 4] was over 8.00, the pIC50 [2, 5] was 6.30 to 7.00 and the pIC50 [3, 6] was over 8.00.

For `CC(=O)N[C@H]1CSSC[C@@H](C(N)=O)NC(=O)[C@H](CC(C)C)NC(=O)[C@H]([C@@H](C)O)NC(=O)[C@H](CC(=O)O)NC(=O)[C@H](CO)NC(=O)[C@H](CCCNC(=N)N)NC1=O` [compound 195, Ac-C-R-S-D-T-L-C-NH2] (Ac-CRSDTLC-NH2; disulfide 1-7), the pIC50 [1, 7] was 5.91, the pIC50 [2, 8] was 5.54 and the pIC50 [3, 9] was 7.01.

`CC(=O)N[C@@H]1C(=O)N(C)[C@@H](CCCNC(=N)N)C(=O)N[C@@H](CO)C(=O)N[C@@H](CC(=O)O)C(=O)N[C@@H]([C@@H](C)O)C(=O)N[C@@H](CC(C)C)C(=O)N[C@H](C(=O)N[C@@H](Cc2ccc(C(C)(C)C)cc2)C(=O)N[C@@H](CCC(=O)O)CC(=O)O)C(C)(C)SSC1(C)C` [compound 152] (Ac-[Pen][NMeR]SDTL[Pen][Phe(4-tBu)][β3hE]-OH; disulfide 1-7) showed a pIC50 [1, 4] of over 8.00, a pIC50 [2, 5] of 6.30 to 7.00 and a pIC50 [3, 6] of over 8.00.

`CC(=O)N[C@@H]1C(=O)N(C)[C@@H](CCCNC(=N)N)C(=O)N[C@@H](CO)C(=O)N[C@@H](CC(=O)O)C(=O)N[C@@H]([C@@H](C)O)C(=O)N[C@@H](CC(C)C)C(=O)N[C@H](C(=O)N[C@@H](Cc2cccc3ccccc23)C(=O)N[C@@H](CCC(=O)O)CC(=O)N(C)[C@@H](CCCCNC(=O)COCC(=O)NCCCC[C@@H](C(N)=O)N(C)C(=O)C[C@H](CCC(=O)O)NC(=O)[C@H](Cc2cccc3ccccc23)NC(=O)[C@H]2NC(=O)[C@H](CC(C)C)NC(=O)[C@H]([C@@H](C)O)NC(=O)[C@H](CC(=O)O)NC(=O)[C@H](CO)NC(=O)[C@H](CCCNC(=N)N)N(C)C(=O)[C@@H](NC(C)=O)C(C)(C)SSC2(C)C)C(N)=O)C(C)(C)SSC1(C)C` [compound 142] (I: Ac-[Pen][NMeR]SDTL[Pen][1Nal][β3hE][NMeK]-NH2 / II: Ac-[Pen][NMeR]SDTL[Pen][1Nal][β3hE][NMeK]-NH2; disulfide I:1-I:7, II:1-II:7; linker I:10-II:10 via Diglycolyl) was tested, and the pIC50 [1, 4] was over 8.00, the pIC50 [2, 5] was 6.00 to 6.30 and the pIC50 [3, 6] was over 8.00.

For `CC(=O)N[C@H]1CSSC[C@@H](C(=O)NCC(=O)N[C@@H](CCC(=O)O)C(=O)N[C@@H](CCCCNC(=O)CCOCCOCCOCCOCCOCCOCCOCCOCCOCCOCCOCCOCCOCCOCCOCCOCCOCCOCCOCCOCCOCCOCCOCCOCCOCCC(=O)NCCCC[C@H](NC(=O)[C@H](CCC(=O)O)NC(=O)CNC(=O)[C@@H]2CSSC[C@H](NC(C)=O)C(=O)N[C@@H](CCCNC(=N)N)C(=O)N[C@@H](CO)C(=O)N[C@@H](CC(=O)O)C(=O)N[C@@H]([C@@H](C)O)C(=O)N[C@@H](CC(C)C)C(=O)N2)C(N)=O)C(N)=O)NC(=O)[C@H](CC(C)C)NC(=O)[C@H]([C@@H](C)O)NC(=O)[C@H](CC(=O)O)NC(=O)[C@H](CO)NC(=O)[C@H](CCCNC(=N)N)NC1=O` [compound 197, (Ac-C-R-S-D-T-L-C-G-E-K-NH2)2-PEG25] (I: Ac-CRSDTLCGEK-NH2 / II: Ac-CRSDTLCGEK-NH2; disulfide I:1-I:7, II:1-II:7; linker I:10-II:10 via X2), the pIC50 [1, 7] was 6.52, the pIC50 [2, 8] was 6.02 and the pIC50 [3, 9] was 7.44.

`CC(=O)N[C@@H]1C(=O)N(C)[C@@H](CCCNC(=N)N)C(=O)N[C@@H](CO)C(=O)N[C@@H](CC(=O)O)C(=O)N[C@@H]([C@@H](C)O)C(=O)N[C@@H](CC(C)C)C(=O)N[C@H](C(=O)N[C@@H](Cc2ccc(C(=O)O)cc2)C(=O)N[C@@H](CCC(=O)O)CC(=O)N(C)[C@@H](CCCCNC(=O)COCC(=O)NCCCC[C@@H](C(N)=O)N(C)C(=O)C[C@H](CCC(=O)O)NC(=O)[C@H](Cc2ccc(C(=O)O)cc2)NC(=O)[C@H]2NC(=O)[C@H](CC(C)C)NC(=O)[C@H]([C@@H](C)O)NC(=O)[C@H](CC(=O)O)NC(=O)[C@H](CO)NC(=O)[C@H](CCCNC(=N)N)N(C)C(=O)[C@@H](NC(C)=O)C(C)(C)SSC2(C)C)C(N)=O)C(C)(C)SSC1(C)C` [compound 148] (I: Ac-[Pen][NMeR]SDTL[Pen][Phe(4-COOH)][β3hE][NMeK]-NH2 / II: Ac-[Pen][NMeR]SDTL[Pen][Phe(4-COOH)][β3hE][NMeK]-NH2; disulfide I:1-I:7, II:1-II:7; linker I:10-II:10 via Diglycolyl) was tested, and the pIC50 [1, 4] was over 8.00, the pIC50 [2, 5] was 6.30 to 7.00 and the pIC50 [3, 6] was over 8.00.

`CC(=O)N[C@@H]1C(=O)N(C)[C@@H](CCCNC(=N)N)C(=O)N[C@@H](CO)C(=O)N[C@@H](CC(=O)O)C(=O)N[C@@H]([C@@H](C)O)C(=O)N[C@@H](CC(C)C)C(=O)N[C@H](C(=O)N[C@@H](Cc2c[nH]c3ccccc23)C(=O)N[C@H](CCC(=O)O)C(=O)N[C@H](CCCCNC(=O)COCC(=O)NCCCC[C@@H](NC(=O)[C@@H](CCC(=O)O)NC(=O)[C@H](Cc2c[nH]c3ccccc23)NC(=O)[C@H]2NC(=O)[C@H](CC(C)C)NC(=O)[C@H]([C@@H](C)O)NC(=O)[C@H](CC(=O)O)NC(=O)[C@H](CO)NC(=O)[C@H](CCCNC(=N)N)N(C)C(=O)[C@@H](NC(C)=O)C(C)(C)SSC2(C)C)C(N)=O)C(N)=O)C(C)(C)SSC1(C)C` [compound 68] (I: Ac-[Pen][NMeR]SDTL[Pen]W[dE][dK]-NH2 / II: Ac-[Pen][NMeR]SDTL[Pen]W[dE][dK]-NH2; disulfide I:1-I:7, II:1-II:7; linker I:10-II:10 via Diglycolyl) gave a pIC50 [1, 4] of 7.30 to 7.60, a pIC50 [2, 5] of 6.00 to 6.30 and a pIC50 [3, 6] of over 8.00.

With `CC(=O)N[C@@H]1C(=O)N(C)[C@@H](CCCNC(=N)N)C(=O)N[C@@H](CO)C(=O)N[C@@H](CC(=O)O)C(=O)N[C@@H](C(C)O)C(=O)N[C@@H](CC(C)C)C(=O)N[C@H](C(=O)N[C@@H](Cc2ccc(C(C)(C)C)cc2)C(=O)N[C@@H](CCC(=O)O)CC(=O)N[C@H](CCCCNC(=O)COCC(=O)NCCCC[C@@H](NC(=O)C[C@H](CCC(=O)O)NC(=O)[C@H](Cc2ccc(C(C)(C)C)cc2)NC(=O)[C@H]2NC(=O)[C@H](CC(C)C)NC(=O)[C@H](C(C)O)NC(=O)[C@H](CC(=O)O)NC(=O)[C@H](CO)NC(=O)[C@H](CCCNC(=N)N)N(C)C(=O)[C@@H](NC(C)=O)C(C)(C)SSC2(C)C)C(N)=O)C(N)=O)C(C)(C)SSC1(C)C` (stereo partly drawn) [Peptide X, [Ac-Pen-(N-Me-Arg)-Ser-Asp-Thr-Leu-Pen-(Phe(4-tBu))-(β-homoGlu)-(D-Lys)]2-DIG] (I: Ac-[Pen][NMeR]SD[Thr(3ξ)]L[Pen][Phe(4-tBu)][β3hE][dK]-NH2 / II: Ac-[Pen][NMeR]SD[Thr(3ξ)]L[Pen][Phe(4-tBu)][β3hE][dK]-NH2; disulfide I:1-I:7, II:1-II:7; linker I:10-II:10 via Diglycolyl) the pIC50 ([1]; human B cell lymphoblastoid RPMI8866, read-out: IC50 for blocking adhesion of RPMI8866 cell line to MAdCAM-1) was 9.14, the pIC50 ([2]; 1 mM Mg^2+ binding conditions, read-out: IC50 for α4β1, competition ELISA) was under 5.00 and the pIC50 ([2]; b977, second statement, conditions not stated, read-out: IC50 for α4β1) was under 4.00. For the same molecule, the pIC50 ([3]; 1 mM Mg^2+ binding conditions, read-out: IC50 for α4β7, competition ELISA) was 8.52.

With `CC(=O)N[C@H]1CSSC[C@@H](C(=O)NCC(=O)N[C@@H](CCC(=O)O)C(N)=O)NC(=O)[C@H](CC(C)C)NC(=O)[C@H]([C@@H](C)O)NC(=O)[C@H](CC(=O)O)NC(=O)[C@H](CO)NC(=O)[C@H](CCCNC(=N)N)N(C)C1=O` [compound 198, Ac-C-N-Me-R-S-D-T-L-C-G-E-NH2] (Ac-C[NMeR]SDTLCGE-NH2; disulfide 1-7) the pIC50 [1, 7] was 5.95, the pIC50 [2, 8] was 5.89 and the pIC50 [3, 9] was 7.70.

`CC(=O)N[C@H]1CSSC[C@@H](C(=O)NCC(=O)N[C@@H](CCC(=O)O)C(N)=O)NC(=O)[C@H](CC(C)C)NC(=O)[C@H]([C@@H](C)O)NC(=O)[C@H](CC(=O)O)NC(=O)[C@H](CO)NC(=O)[C@H](CCCNC(=N)N)NC1=O` [compound 194, Ac-C-R-S-D-T-L-C-G-E-NH2] (Ac-CRSDTLCGE-NH2; disulfide 1-7) was tested, and the pIC50 [1, 7] was 6.23, the pIC50 [2, 8] was 5.69 and the pIC50 [3, 9] was 7.01.
